“And” between values parts separate entries of the source, which are not always exact repeats. Identical values can stand only once.
Legend:
Assay type in all cases: in vivo
[1] = tested on: cat fleas (Ctenocephalides felis); test: Flea egg hatching after oral application to dogs (systemic control); settings: beagle dog host, oral 10 mg/kg in dog feed
Experimental: One day after infestation, the weights of three dogs were measured and Compound #1 was applied orally to each of said three dogs in an amount of 10 mg per one kilogram of the weight of the dog by incorporating Compound #1 into dog feed and having the dog to eat it. After application, the dogs were placed in said steel cages.
(§1) The flea eggs collected onto the removable bottom tray were retrieved 4 and 5 days after the application. About 60 eggs were chosen from each batch of retrieved eggs. They were transferred to a plastic dish and then preserved under the conditions wherein the temperature was 26° C. and the humidity was at 90%. After 5-7 days of preservation, the eggs were observed about hatching.
The same procedure was repeated with another three dogs except that dog feed comprising no Compound #1 was applied. The percentages of hatching for applied dogs “T” and the percentage of hatching for non-applied dogs “C” were derived from the equation, respectively:
(§2) T=(the amount of hatched eggs)÷(the amount of retrieved eggs)×100
(§3) C=(the amount of hatched eggs)÷(the amount of retrieved eggs)×100
(§4) The obtained values of “T” and “C” were then used to determine the APH by employing the equation 1 mentioned above Example 1.

[2] = tested on: cat fleas (Ctenocephalides felis); test: Flea egg hatching after oral application to cats (systemic control); settings: cat host, oral 20 mg/kg in cat feed
Experimental: Seven days after infestation, the weights of two cats of were measured and Compound #1 was applied orally to each of said two cats in an amount of 20 mg per one kilogram of the weight of the cat by incorporating Compound #1 into cat feed and having the cat to eat it. After application, the cats were placed in said steel cages.
as §1, with “were retrieved 6 and 14” for “were retrieved 4 and 5”, “6 and 14 days after” for “4 and 5 days after”, “after the date of application. About” for “after the application. About”
The same procedure was repeated with another two cats except that cat feed comprising no Compound #1 was applied.
The percentages of hatching for applied cats “T” and the percentage of hatching for non-applied cats “C” were derived from the equation, respectively:
as §2, §3, §4

[3] = tested on: cat fleas (Ctenocephalides felis); test: Flea egg hatching after oral application to mouse (systemic control); settings: mouse host, oral 20 mg/kg in corn oil; for adjusted percentage concerning the loss of hatchings (%) 5 days after: flea eggs retrieved 5 days after application; for adjusted percentage concerning the loss of hatchings (%) 14 days after: flea eggs retrieved 14 days after application; for adjusted percentage concerning the loss of hatchings (%) 30 days after: flea eggs retrieved 30 days after application
Experimental: By using an appropriate sonde for the mouse, oral application to the mouse was performed at the rate of about 10 mL of the composition per kilogram body weight of the mouse. The said mouse was then stabilized with a wire netting, and was placed in a plastic container (depth 15 cm×width 15 cm×height 60 cm). Thirty (10 male and 20 female) starved adult cat fleas (Ctenocephalides felis) were freed into the said plastic container and the produced f lea eggs were retrieved f ive days later. A suitable amount (about 60 eggs) was transferred to a plastic dish and, preserved under the conditions wherein the temperature was 26° C. and the humidity was at 90%. After 2 days of preservation, the hatching conditions were observed. Afterwards, the treated mouse was allowed to inhabit a standard pet cage with food and water. Ten days after the application, the mouse was stabilized, placed in a plastic container, and was exposed to cat fleas in the same way as stated above. The produced flea eggs were then retrieved 14 days after the application, preserved in the conditions stated above, and had the hatching conditions observed. Twenty-six days after the application, the mouse was stabilized, placed in a plastic container, and was exposed to cat fleas in the same way as stated above. The produced flea eggs were then retrieved 30 days after the application of the composition, preserved in the conditions stated above, and had the hatching conditions observed. The same procedure was repeated without the application of the composition. The percentages of hatching for applied mouse “T” and the percentage of hatching for non-applied mouse “C” were derived from the equation, respectively: T=(the amount of hatched eggs)÷(the amount of retrieved eggs)×100 C=(the amount of hatched eggs)÷(the amount of retrieved eggs)×100 The acquired values of “T” and “C” were used to determine the adjusted percentage concerning the loss of hatchings by employing equation 1. The acquired values of “T” and “C” were utilized in the following equation: The adjusted percentage concerning the loss of hatchings (%)=(C−T)÷C×100 to determine the adjusted percentage concerning the loss of hatchings (hereinafter, recited as APH). […] In other words, “APH” looks at the amount of eggs that were unable to hatch rather than the amount of eggs that were able to hatch.

Structure (SMILES)	average APH after 4 days ([1]; flea eggs retrieved 4 days after application) [%]	average APH after 5 days ([1]; flea eggs retrieved 5 days after application, 10 mg/kg)	average APH after 6 days ([2]; flea eggs retrieved 6 days after application) [%]	average APH after 14 days ([2]; flea eggs retrieved 14 days after application, 20 mg/kg)	adjusted percentage concerning the loss of hatchings (%) 5 days after [3] [%]	adjusted percentage concerning the loss of hatchings (%) 14 days after [3] [%]	adjusted percentage concerning the loss of hatchings (%) 30 days after [3] [%]
O=C(NC(=O)c1c(F)cccc1F)Nc1ccc(OC(F)(F)C(F)C(F)(F)F)cc1F (stereo not drawn) [Compound #1, 1-(2,6-difluorobenzoyl)-3-[2-fluoro-4-(1,1,2,3,3,3-hexafluoropropoxy)phenyl]urea]	86.5	76.6% and 77%	81.9	79.6% and 80%	100	100	93
O=C(NC(=O)c1c(F)cccc1F)Nc1ccc(OC(F)(F)C(F)F)cc1 [Compound B, 1-(2,6-difluorobenzoyl)-3-[4-(1,1,2,2-tetrafluoroethoxy)phenyl]urea]					83	0	
O=C(NC(=O)c1c(F)cccc1F)Nc1cccc(Oc2ncc(C(F)(F)F)cc2Cl)c1 [Compound C, 1-(2,6-difluorobenzoyl)-3-[3-(3-chloro-5-trifluoromethylpyridin-2-yloxy)phenyl]urea]					96	77	11
